The values that follow come from BindingDB's records for PubMed 32942081 (Jamia Millia Islamia, 2020).

This test addresses T1, Amine oxidase [flavin-containing] B (Homo sapiens, UniProt P27338).
T1 sequence (P27338 whole entry): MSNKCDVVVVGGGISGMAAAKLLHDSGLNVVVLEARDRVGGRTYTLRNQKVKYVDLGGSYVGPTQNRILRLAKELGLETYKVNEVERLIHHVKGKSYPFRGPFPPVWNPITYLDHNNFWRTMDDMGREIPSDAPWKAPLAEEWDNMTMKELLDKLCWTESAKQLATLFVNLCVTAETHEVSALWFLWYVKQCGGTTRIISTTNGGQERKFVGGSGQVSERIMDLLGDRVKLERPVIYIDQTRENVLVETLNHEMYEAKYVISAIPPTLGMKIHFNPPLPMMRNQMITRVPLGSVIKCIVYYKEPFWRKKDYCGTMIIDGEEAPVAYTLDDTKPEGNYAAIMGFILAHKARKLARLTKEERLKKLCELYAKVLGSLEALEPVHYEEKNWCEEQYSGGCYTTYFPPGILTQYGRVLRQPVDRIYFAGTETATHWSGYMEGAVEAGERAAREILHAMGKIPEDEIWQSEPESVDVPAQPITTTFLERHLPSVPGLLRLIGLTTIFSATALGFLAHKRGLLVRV
As to the kind of experiment: Inhibition of human MAO-B using tyramine as substrate by amplex red assay.

With `Cc1ccc(C2=NO[C@@H](c3ccc(Cl)c(Cl)c3)C2)cc1`, the IC50 turned out to be 1.9 nM.
